Results reported in the NIST ThermoML archive (doi:10.1021/je400709f).

Assay: excess molar enthalpy (molar enthalpy of mixing); xn = mol fraction of the nth substance listed
Conditions: 298.15 K, 101 kPa, Liquid, Calvet calorimetry

CCCCCCCC[n+]1ccn(C)c1.F[B-](F)(F)F [1-methyl-3-octylimidazolium tetrafluoroborate] + CC(C)O
Conditions	excess molar enthalpy [kcal/mol]
x1 = 0.139	0.337
x1 = 0.142	0.342
x1 = 0.144	0.348
x1 = 0.148	0.354
x1 = 0.151	0.36
x1 = 0.154	0.366
x1 = 0.158	0.373
x1 = 0.162	0.379
x1 = 0.165	0.386
x1 = 0.17	0.392
x1 = 0.173	0.397
x1 = 0.176	0.402
x1 = 0.179	0.406
x1 = 0.183	0.412
x1 = 0.186	0.417
x1 = 0.19	0.422
x1 = 0.194	0.428
x1 = 0.198	0.433
x1 = 0.202	0.439
x1 = 0.207	0.445
x1 = 0.212	0.452
x1 = 0.216	0.459
x1 = 0.221	0.467
x1 = 0.227	0.475
x1 = 0.232	0.484
x1 = 0.238	0.493
x1 = 0.244	0.502
x1 = 0.251	0.511
x1 = 0.258	0.528
x1 = 0.265	0.54
x1 = 0.273	0.552
x1 = 0.281	0.565
x1 = 0.29	0.578
x1 = 0.295	0.587
x1 = 0.301	0.597
x1 = 0.307	0.606
x1 = 0.314	0.614
x1 = 0.32	0.624
x1 = 0.327	0.633
x1 = 0.335	0.641
x1 = 0.342	0.65
x1 = 0.35	0.658
x1 = 0.359	0.665
x1 = 0.367	0.672
x1 = 0.377	0.677
x1 = 0.386	0.681
x1 = 0.396	0.683
x1 = 0.407	0.684
x1 = 0.418	0.683
x1 = 0.43	0.682
x1 = 0.443	0.68
x1 = 0.456	0.677
x1 = 0.471	0.672
x1 = 0.486	0.666
x1 = 0.502	0.659
x1 = 0.519	0.65
x1 = 0.538	0.638
x1 = 0.558	0.625
x1 = 0.566	0.619
x1 = 0.575	0.612
x1 = 0.584	0.604
x1 = 0.593	0.596
x1 = 0.602	0.587
x1 = 0.612	0.578
x1 = 0.622	0.567
x1 = 0.632	0.557
x1 = 0.643	0.545
x1 = 0.654	0.533
x1 = 0.666	0.52
x1 = 0.678	0.506
x1 = 0.69	0.491
x1 = 0.703	0.476
x1 = 0.716	0.459
x1 = 0.73	0.441
x1 = 0.744	0.421
x1 = 0.759	0.401
x1 = 0.775	0.378
x1 = 0.791	0.354
x1 = 0.808	0.329
x1 = 0.825	0.301
x1 = 0.844	0.273
x1 = 0.863	0.241
x1 = 0.883	0.208
x1 = 0.904	0.171
x1 = 0.927	0.134
x1 = 0.95	0.0913
x1 = 0.974	0.048

CCCCCCCC[n+]1ccn(C)c1.F[B-](F)(F)F [1-methyl-3-octylimidazolium tetrafluoroborate] + CCCCCO
Conditions	excess molar enthalpy [kcal/mol]
x1 = 0.213	0.35
x1 = 0.218	0.358
x1 = 0.223	0.365
x1 = 0.229	0.373
x1 = 0.234	0.38
x1 = 0.24	0.388
x1 = 0.244	0.393
x1 = 0.249	0.398
x1 = 0.254	0.404
x1 = 0.259	0.41
x1 = 0.264	0.416
x1 = 0.269	0.423
x1 = 0.275	0.429
x1 = 0.281	0.435
x1 = 0.287	0.443
x1 = 0.293	0.45
x1 = 0.3	0.457
x1 = 0.306	0.464
x1 = 0.314	0.472
x1 = 0.321	0.481
x1 = 0.329	0.49
x1 = 0.338	0.5
x1 = 0.346	0.51
x1 = 0.356	0.52
x1 = 0.365	0.53
x1 = 0.372	0.537
x1 = 0.378	0.544
x1 = 0.385	0.552
x1 = 0.392	0.559
x1 = 0.4	0.567
x1 = 0.407	0.574
x1 = 0.415	0.581
x1 = 0.424	0.588
x1 = 0.432	0.595
x1 = 0.441	0.6
x1 = 0.451	0.604
x1 = 0.46	0.607
x1 = 0.471	0.608
x1 = 0.481	0.606
x1 = 0.492	0.604
x1 = 0.504	0.601
x1 = 0.516	0.597
x1 = 0.529	0.592
x1 = 0.542	0.586
x1 = 0.557	0.578
x1 = 0.572	0.568
x1 = 0.587	0.558
x1 = 0.604	0.546
x1 = 0.622	0.532
x1 = 0.64	0.516
x1 = 0.648	0.508
x1 = 0.656	0.501
x1 = 0.664	0.492
x1 = 0.673	0.484
x1 = 0.681	0.475
x1 = 0.69	0.465
x1 = 0.699	0.455
x1 = 0.708	0.444
x1 = 0.718	0.433
x1 = 0.728	0.421
x1 = 0.738	0.408
x1 = 0.748	0.396
x1 = 0.759	0.382
x1 = 0.77	0.367
x1 = 0.781	0.352
x1 = 0.792	0.336
x1 = 0.804	0.319
x1 = 0.817	0.301
x1 = 0.829	0.283
x1 = 0.842	0.263
x1 = 0.856	0.242
x1 = 0.87	0.22
x1 = 0.884	0.197
x1 = 0.899	0.173
x1 = 0.914	0.148
x1 = 0.93	0.12
x1 = 0.947	0.0927
x1 = 0.964	0.0626
x1 = 0.982	0.032
